Several values for one entry are separate records, joined by “and”; a condition that tells them apart may be missing. Equal entries are not always repeated. Where two headings read alike, the source gives them in different places.
How the values were obtained:
[1] = format: in vivo, mice; details: mice, i.v.
Description: Each tracer was intravenously injected into mice, and then the animals were killed by cervical dislocation at 1, 5, 15, 30 and 60 min after injection (n = 4). The body weight of the mice was 34.7±1.2 g. The injected doses of tracers were 2 MBq/0.049–0.051 nmol. Blood was collected by heart puncture and tissues were harvested. The carbon-11 in the samples was counted with an auto-gamma-counter (LKB Wallac Compu-gamma 1282CS, Turku, Finland) and the tissues were weighed. The tissue uptake of carbon-11 was expressed as the %ID/g.

[2] = format: in vivo, rhesus monkeys (Macaca mulatta); details: monkey
Description: Blood samples were centrifuged to separate the plasma, weighed, and subjected to radioactivity measurement. For metabolite analysis, methanol was added to some plasma samples, the resulting solutions were centrifuged, and the supernatants were developed with TLC plates (AL SIL G/UV; Whatman, Kent, UK) using a mobile phase of dichloromethane/diethyl ether/ethanol/triethylamine (20/20/2/2, v/v/v/v). At each sampling time point, the ratio of radioactivity in the unmetabolized fraction to that in the total plasma (metabolite plus unmetabolite) was determined using a phosphoimaging plate (BAS-1500 MAC; Fuji Film Co., Tokyo, Japan). The pTACs corrected for metabolite were obtained. The tTACs in each region of interest (ROI) in the brain were calculated as the %ID/ml or as a standardized uptake value (SUV), (activity/ml tissue)/(injected activity/g body weight). Using the tTACs and the metabolite-corrected pTAC, the V T for each tracer was evaluated by Logan graphical analysis.

## [11CH3]N1CC2CN(c3ccc(-c4ccccc4)nn3)CC2C1 (stereo not shown) [[^11C]A-582941, 2-[^11C]Methyl-5-[6-phenylpyridazine-3-yl]octahydropyrrolo[3,4-c]pyrrole]
[1]
  time of peak radioactivity in the brain: 5 min
[1]; 1 min after injection
  % Injected dose/g tissue, Blood: 1.84±0.43 % Injected dose/g tissue
  % Injected dose/g tissue, Brain: 2.61±0.33 % Injected dose/g tissue
  % Injected dose/g tissue, Heart: 4.33±0.82 % Injected dose/g tissue
  % Injected dose/g tissue, Kidney: 13.87±1.58 % Injected dose/g tissue
  % Injected dose/g tissue, Liver: 3.59±0.45 % Injected dose/g tissue
  % Injected dose/g tissue, Lung: 18.09±4.18 % Injected dose/g tissue
  % Injected dose/g tissue, Muscle: 2.02±0.34 % Injected dose/g tissue
  % Injected dose/g tissue, Pancreas: 4.65±0.76 % Injected dose/g tissue
  % Injected dose/g tissue, S. intestine: 3.13±0.51 % Injected dose/g tissue
  % Injected dose/g tissue, Spleen: 2.70±0.31 % Injected dose/g tissue
[1]; 5 min after injection
  % Injected dose/g tissue, Blood: 0.89±0.04 % Injected dose/g tissue
  % Injected dose/g tissue, Brain: 3.92±0.49 % Injected dose/g tissue
  % Injected dose/g tissue, Heart: 2.16±0.13 % Injected dose/g tissue
  % Injected dose/g tissue, Kidney: 8.77±0.79 % Injected dose/g tissue
  % Injected dose/g tissue, Liver: 10.52±0.69 % Injected dose/g tissue
  % Injected dose/g tissue, Lung: 12.52±8.59 % Injected dose/g tissue
  % Injected dose/g tissue, Muscle: 1.40±0.16 % Injected dose/g tissue
  % Injected dose/g tissue, Pancreas: 7.47±0.54 % Injected dose/g tissue
  % Injected dose/g tissue, S. intestine: 4.49±0.60 % Injected dose/g tissue
  % Injected dose/g tissue, Spleen: 5.53±0.38 % Injected dose/g tissue
[1]; 15 min after injection
  % Injected dose/g tissue, Blood: 0.76±0.06 % Injected dose/g tissue
  % Injected dose/g tissue, Brain: 3.63±0.28 % Injected dose/g tissue
  % Injected dose/g tissue, Heart: 1.72±0.17 % Injected dose/g tissue
  % Injected dose/g tissue, Kidney: 6.02±0.97 % Injected dose/g tissue
  % Injected dose/g tissue, Liver: 12.38±1.68 % Injected dose/g tissue
  % Injected dose/g tissue, Lung: 7.02±0.10 % Injected dose/g tissue
  % Injected dose/g tissue, Muscle: 1.06±0.09 % Injected dose/g tissue
  % Injected dose/g tissue, Pancreas: 5.80±0.80 % Injected dose/g tissue
  % Injected dose/g tissue, S. intestine: 4.61±0.60 % Injected dose/g tissue
  % Injected dose/g tissue, Spleen: 5.13±0.72 % Injected dose/g tissue
[1]; 30 min after injection
  % Injected dose/g tissue, Blood: 0.64±0.06 % Injected dose/g tissue
  % Injected dose/g tissue, Brain: 2.68±0.29 % Injected dose/g tissue
  % Injected dose/g tissue, Heart: 1.39±0.10 % Injected dose/g tissue
  % Injected dose/g tissue, Kidney: 4.83±0.77 % Injected dose/g tissue
  % Injected dose/g tissue, Liver: 9.87±0.80 % Injected dose/g tissue
  % Injected dose/g tissue, Lung: 6.06±0.31 % Injected dose/g tissue
  % Injected dose/g tissue, Muscle: 0.82±0.07 % Injected dose/g tissue
  % Injected dose/g tissue, Pancreas: 4.68±0.51 % Injected dose/g tissue
  % Injected dose/g tissue, S. intestine: 5.33±1.20 % Injected dose/g tissue
  % Injected dose/g tissue, Spleen: 3.64±0.14 % Injected dose/g tissue
[1]; 60 min after injection
  % Injected dose/g tissue, Blood: 0.57±0.05 % Injected dose/g tissue
  % Injected dose/g tissue, Brain: 1.85±0.10 % Injected dose/g tissue
  % Injected dose/g tissue, Heart: 1.02±0.08 % Injected dose/g tissue
  % Injected dose/g tissue, Kidney: 3.74±0.20 % Injected dose/g tissue
  % Injected dose/g tissue, Liver: 7.24±0.74 % Injected dose/g tissue
  % Injected dose/g tissue, Lung: 4.13±0.15 % Injected dose/g tissue
  % Injected dose/g tissue, Muscle: 0.66±0.05 % Injected dose/g tissue
  % Injected dose/g tissue, Pancreas: 3.69±0.42 % Injected dose/g tissue
  % Injected dose/g tissue, S. intestine: 4.53±1.21 % Injected dose/g tissue
  % Injected dose/g tissue, Spleen: 2.89±0.90 % Injected dose/g tissue
[2]; SSR180711-blocking condition (n = 1), 0.3 min
  percentage of the unchanged form in plasma: 93.2%
[2]; SSR180711-blocking condition (n = 1), 0.7 min
  percentage of the unchanged form in plasma: 93.9%
[2]; SSR180711-blocking condition (n = 1), 1.1 min
  percentage of the unchanged form in plasma: 93.0%
[2]; SSR180711-blocking condition (n = 1), 6.0 min
  percentage of the unchanged form in plasma: 74.2%
[2]; SSR180711-blocking condition (n = 1), 10 min
  percentage of the unchanged form in plasma: 56.7%
[2]; SSR180711-blocking condition (n = 1), 30 min
  percentage of the unchanged form in plasma: 28.3%
[2]; SSR180711-blocking condition (n = 1), 45 min
  percentage of the unchanged form in plasma: 23.2%
[2]; SSR180711-blocking condition (n = 1), 60 min
  percentage of the unchanged form in plasma: 20.4%
[2]; SSR180711-blocking condition (n = 1), 75 min
  percentage of the unchanged form in plasma: 22.2%
[2]; SSR180711-blocking condition (n = 1), 90 min
  percentage of the unchanged form in plasma: 15.9%
[2]; baseline, 10 min
  percentage of the unchanged form in plasma: 71.6±4.1%
[2]; baseline, 30 min
  percentage of the unchanged form in plasma: 42.8±7.8% and 42.8%
[2]; baseline, 45 min
  percentage of the unchanged form in plasma: 34.0±7.4%
[2]; baseline, 60 min
  percentage of the unchanged form in plasma: 26.9±5.3%
[2]; baseline, 75 min
  percentage of the unchanged form in plasma: 23.0±3.4%
[2]; baseline, 90 min
  percentage of the unchanged form in plasma: 19.2±2.6%
